Experimental data published in ChEMBL document CHEMBL1201862, “PubChem BioAssay data set” (2004).
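Step 1: Grow cells in 96-well plates. Step 2: Expose to compound for 48 hours at 5 concentrations. Step 3: Interpolate endpoints linearly; if unreached, use highest concentration. GI50 is the concentration that inhibits growth by half.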 Active and inactive are the calls of the source. No stated cut-off is given here; in the data, active = GI50 up to about 1.1 µM and inactive = higher.

What was measured:
Experiment in all cases: NCI anticancer screen, dose series, 48 h
786-0 = test system: 786-0
A498 = test system: A498
A549 = test system: A549
ACHN = test system: ACHN
BT-549 = test system: BT-549
CAKI-1 = test system: CAKI-1
CCRF-CEM = test system: CCRF-CEM
COLO 205 = test system: COLO 205
DU-145 = test system: DU-145
EKVX = test system: EKVX
HCC 2998 = test system: HCC 2998
HCT-116 = test system: HCT-116
HCT-15 = test system: HCT-15
HL-60 = test system: HL-60
HOP-62 = test system: HOP-62
HOP-92 = test system: HOP-92
HT-29 = test system: HT-29
Hs-578T = test system: Hs-578T
IGROV-1 = test system: IGROV-1
K562 = test system: K562
KM12 = test system: KM12
LOX IMVI = test system: LOX IMVI
MCF7 = test system: MCF7
MDA-MB-231 = test system: MDA-MB-231
MDA-MB-435 = test system: MDA-MB-435
MDA-N = test system: MDA-N
MOLT-4 = test system: MOLT-4
Malme-3M = test system: Malme-3M
NCI-H226 = test system: NCI-H226
NCI-H23 = test system: NCI-H23
NCI-H460 = test system: NCI-H460
NCI-H522 = test system: NCI-H522
NCI/ADR-RES = test system: NCI/ADR-RES
OVCAR-3 = test system: OVCAR-3
OVCAR-4 = test system: OVCAR-4
OVCAR-5 = test system: OVCAR-5
OVCAR-8 = test system: OVCAR-8
PC-3 = test system: PC-3
RPMI-8226 = test system: RPMI-8226
RXF 393 = test system: RXF 393
SF-268 = test system: SF-268
SF-295 = test system: SF-295
SF-539 = test system: SF-539
SK-MEL-28 = test system: SK-MEL-28
SK-MEL-2 = test system: SK-MEL-2
SK-MEL-5 = test system: SK-MEL-5
SK-OV-3 = test system: SK-OV-3
SN12C = test system: SN12C
SNB-75 = test system: SNB-75
SR = test system: SR
SW-620 = test system: SW-620
T47D = test system: T47D
TK-10 = test system: TK-10
U-251 = test system: U-251
UACC-257 = test system: UACC-257
UACC-62 = test system: UACC-62
UO-31 = test system: UO-31

In the case of CCOP(=O)(CC1CC(O)(CNc2cc(Cl)nc(N)n2)C1)OCC (configuration not stated), the GI50 (786-0) is reported as > 100 µM (inactive), the GI50 (A498) is reported as > 100 µM (inactive) and the GI50 (A549) is reported as > 100 µM (inactive). For the same compound, the GI50 (ACHN) was > 100 µM (inactive), the GI50 (BT-549) was > 100 µM (inactive) and the GI50 (CAKI-1) was > 100 µM (inactive). For the same compound, the GI50 (CCRF-CEM) was > 100 µM (inactive), the GI50 (COLO 205) was > 100 µM (inactive) and the GI50 (DU-145) was > 100 µM (inactive). For the same compound, the GI50 (EKVX) was > 100 µM (inactive), the GI50 (HCC 2998) was > 100 µM (inactive) and the GI50 (HCT-116) was > 100 µM (inactive). The GI50 (HCT-15) was over 100 µM, the GI50 (HL-60) was > 100 µM (inactive) and the GI50 (HOP-62) was > 100 µM (inactive). For the same compound, the GI50 (HOP-92) was > 100 µM (inactive), the GI50 (HT-29) was > 100 µM (inactive) and the GI50 (Hs-578T) was > 100 µM (inactive). The GI50 (IGROV-1) was > 100 µM (inactive), the GI50 (K562) was > 100 µM (inactive) and the GI50 (KM12) was > 100 µM (inactive). The GI50 (LOX IMVI) was > 100 µM (inactive), the GI50 (MCF7) was > 100 µM (inactive) and the GI50 (MDA-MB-231) was > 100 µM (inactive). For the same compound, the GI50 (MDA-MB-435) was > 100 µM (inactive), the GI50 (MDA-N) was > 100 µM (inactive) and the GI50 (MOLT-4) was > 100 µM (inactive). For the same compound, the GI50 (Malme-3M) was > 100 µM (inactive), the GI50 (NCI-H226) was > 100 µM (inactive) and the GI50 (NCI-H23) was > 100 µM (inactive). For the same compound, the GI50 (NCI-H460) was > 100 µM (inactive), the GI50 (NCI-H522) was > 100 µM (inactive) and the GI50 (NCI/ADR-RES) was > 100 µM (inactive). The GI50 (OVCAR-3) was > 100 µM (inactive), the GI50 (OVCAR-4) was > 100 µM (inactive) and the GI50 (OVCAR-5) was > 100 µM (inactive). For the same compound, the GI50 (OVCAR-8) was > 100 µM (inactive), the GI50 (PC-3) was > 100 µM (inactive) and the GI50 (RPMI-8226) was > 100 µM (inactive). The GI50 (RXF 393) was > 100 µM (inactive), the GI50 (SF-268) was > 100 µM (inactive) and the GI50 (SF-295) was > 100 µM (inactive). The GI50 (SF-539) was > 100 µM (inactive), the GI50 (SK-MEL-28) was > 100 µM (inactive) and the GI50 (SK-MEL-2) was > 100 µM (inactive). The GI50 (SK-MEL-5) was > 100 µM (inactive), the GI50 (SK-OV-3) was > 100 µM (inactive) and the GI50 (SN12C) was > 100 µM (inactive). The GI50 (SNB-75) was > 100 µM (inactive), the GI50 (SR) was > 100 µM (inactive) and the GI50 (SW-620) was > 100 µM (inactive). For the same compound, the GI50 (T47D) was 98.9 µM (inactive), the GI50 (TK-10) was > 100 µM (inactive) and the GI50 (U-251) was > 100 µM (inactive). The GI50 (UACC-257) was > 100 µM (inactive), the GI50 (UACC-62) was > 100 µM (inactive) and the GI50 (UO-31) was > 100 µM (inactive).
